Results published in ChEMBL document CHEMBL1770066, “A green expedient synthesis of pyridopyrimidine-2-thiones and their antitubercular activity” (2011).
In brackets after ≈: the same amount, converted by molar mass.

Assays:
Assay type in all cases: functional
[1] = tested on: Mycobacterium tuberculosis; assay: Antituberculosis activity against Mycobacterium tuberculosis H37Rv by agar dilution method
[2] = tested on: Mycobacterium tuberculosis; assay: Ratio of MIC for ethambutol to compound for Mycobacterium tuberculosis H37Rv
[3] = tested on: Mycobacterium tuberculosis; assay: Ratio of MIC for ciprofloxacin to compound for Mycobacterium tuberculosis H37Rv

Row | Structure (SMILES) | MIC [1] | Ratio [2] | Ratio [3]
1 | Cc1ccc(/C=C2\CN(C)CC3=C2N=C(S)NC3c2ccc(C)cc2)cc1 (stereo not given) | 66.6 µM (≈ 25 µg/mL) | – | –
2 | CN1CC2=C(NC(=S)NC2c2cccc(Br)c2)/C(=C/c2cccc(Br)c2)C1 (stereo not given) | 24.7 µM (≈ 12.5 µg/mL) | – | –
3 | Fc1ccc(/C=C2\CN(Cc3ccccc3)CC3=C2NC(=S)NC3c2ccc(F)cc2)cc1 (stereo not given) | 3.4 µM (≈ 1.56 µg/mL) | 2.2 | 1.4
4 | CN1CC2=C(NC(=S)NC2c2ccc(F)cc2)/C(=C/c2ccc(F)cc2)C1 (stereo not given) | 32.6 µM (≈ 12.5 µg/mL) | – | –
5 | COc1cc(/C=C2\CN(Cc3ccccc3)CC3=C2NC(=S)NC3c2cc(OC)c(OC)c(OC)c2)cc(OC)c1OC (stereo not given) | 41.4 µM (≈ 25 µg/mL) | – | –
6 | S=C1NC2=C(CN(Cc3ccccc3)C/C2=C\c2cccc3ccccc23)C(c2cccc3ccccc23)N1 (stereo not given) | 47.7 µM (≈ 25 µg/mL) | – | –
7 | S=C1NC2=C(CN(Cc3ccccc3)C/C2=C\c2ccc(Cl)cc2Cl)C(c2ccc(Cl)cc2Cl)N1 (stereo not given) | 2.8 µM (≈ 1.57 µg/mL) | 2.7 | 1.7
8 | COc1ccc(/C=C2\CN(C)CC3=C2NC(=S)NC3c2ccc(OC)c(OC)c2)cc1OC (stereo not given) | 53.5 µM (≈ 25 µg/mL) | – | –
9 | CN1CC2=C(NC(=S)NC2c2c(Cl)cccc2Cl)/C(=C/c2c(Cl)cccc2Cl)C1 (stereo not given) | 5.6 µM (≈ 2.72 µg/mL) | 1.4 | –
10 | COc1ccc(/C=C2\CN(Cc3ccccc3)CC3=C2NC(=S)NC3c2ccc(OC)cc2)cc1 (stereo not given) | 51.7 µM (≈ 25 µg/mL) | – | –
11 | CN1CC2=C(NC(=S)NC2c2ccc3ccccc3c2)/C(=C/c2ccc3ccccc3c2)C1 (stereo not given) | 55.9 µM (≈ 25 µg/mL) | – | –
12 | CN1CC2=C(N=C(S)NC2c2ccccc2)/C(=C/c2ccccc2)C1 (stereo not given) | 71.9 µM (≈ 25 µg/mL) | – | –
13 | COc1ccccc1/C=C1\CN(C)CC2=C1NC(=S)NC2c1ccccc1OC (stereo not given) | 61.4 µM (≈ 25 µg/mL) | – | –
14 | CC(C)c1ccc(/C=C2\CN(C)CC3=C2NC(=S)NC3c2ccc(C(C)C)cc2)cc1 (stereo not given) | 57.9 µM (≈ 25 µg/mL) | – | –
15 | CC[C@@H](CO)NCCN[C@@H](CC)CO [ETHAMBUTOL] | 7.6 µM (≈ 1.55 µg/mL) | – | –
16 | CO[C@H]1/C=C/O[C@@]2(C)Oc3c(C)c(O)c4c(O)c(c(/C=N/N5CCN(C)CC5)c(O)c4c3C2=O)NC(=O)/C(C)=C\C=C\[C@H](C)[C@H](O)[C@@H](C)[C@@H](O)[C@@H](C)[C@H](OC(C)=O)[C@@H]1C [RIFAMPIN] | 0.1 µM (≈ 0.0823 µg/mL) | – | –
17 | CN1CC2=C(NC(=S)NC2c2cccc3ccccc23)/C(=C/c2cccc3ccccc23)C1 (stereo not given) | 55.9 µM (≈ 25 µg/mL) | – | –
18 | CN1CC2=C(NC(=S)NC2c2ccc(N(C)C)cc2)/C(=C/c2ccc(N(C)C)cc2)C1 (stereo not given) | 57.7 µM (≈ 25 µg/mL) | – | –
19 | CN1CC2=C(N=C(S)NC2c2cccs2)/C(=C/c2cccs2)C1 (stereo not given) | 69.5 µM (≈ 25 µg/mL) | – | –
20 | CN1CC2=C(N=C(S)NC2c2ccc(Cl)cc2)/C(=C/c2ccc(Cl)cc2)C1 (stereo not given) | 30 µM (≈ 12.5 µg/mL) | – | –

Row | Structure (SMILES) | MIC [1] | Ratio [2] | Ratio [3]
21 | Cc1ccccc1/C=C1\CN(C)CC2=C1NC(=S)NC2c1ccccc1C (stereo not given) | 66.6 µM (≈ 25 µg/mL) | – | –
22 | Fc1cccc(/C=C2\CN(Cc3ccccc3)CC3=C2NC(=S)NC3c2cccc(F)c2)c1 (stereo not given) | 6.8 µM (≈ 3.13 µg/mL) | 1.1 | –
23 | CN1CC2=C(NC(=S)NC2c2ccc(Cl)cc2Cl)/C(=C/c2ccc(Cl)cc2Cl)C1 (stereo not given) | 12.9 µM (≈ 6.26 µg/mL) | – | –
24 | Cc1ccccc1/C=C1\CN(Cc2ccccc2)CC2=C1NC(=S)NC2c1ccccc1C (stereo not given) | 55.4 µM (≈ 25 µg/mL) | – | –
25 | COc1ccc(OC)c(/C=C2\CN(C)CC3=C2NC(=S)NC3c2cc(OC)ccc2OC)c1 (stereo not given) | 53.5 µM (≈ 25 µg/mL) | – | –
26 | CN1CC2=C(NC(=S)NC2c2cccc(F)c2)/C(=C/c2cccc(F)c2)C1 (stereo not given) | 16.3 µM (≈ 6.25 µg/mL) | – | –
27 | S=C1NC2=C(CN(Cc3ccccc3)C/C2=C\c2ccc(Cl)cc2)C(c2ccc(Cl)cc2)N1 (stereo not given) | 25.4 µM (≈ 12.5 µg/mL) | – | –
28 | NNC(=O)c1ccncc1 [ISONIAZID] | 0.4 µM (≈ 0.0549 µg/mL) | – | –
29 | CN1CC2=C(NC(=S)NC2c2ccc(Br)cc2)/C(=C/c2ccc(Br)cc2)C1 (stereo not given) | 24.7 µM (≈ 12.5 µg/mL) | – | –
30 | CN(C)c1ccc(/C=C2\CN(Cc3ccccc3)CC3=C2NC(=S)NC3c2ccc(N(C)C)cc2)cc1 (stereo not given) | 49.1 µM (≈ 25 µg/mL) | – | –
31 | COc1ccc(/C=C2\CN(Cc3ccccc3)CC3=C2NC(=S)NC3c2ccc(OC)c(OC)c2)cc1OC (stereo not given) | 46 µM (≈ 25 µg/mL) | – | –
32 | COc1ccc(OC)c(/C=C2\CN(Cc3ccccc3)CC3=C2NC(=S)NC3c2cc(OC)ccc2OC)c1 (stereo not given) | 46 µM (≈ 25 µg/mL) | – | –
33 | CC(C)c1ccc(/C=C2\CN(Cc3ccccc3)CC3=C2NC(=S)NC3c2ccc(C(C)C)cc2)cc1 (stereo not given) | 24.6 µM (≈ 12.5 µg/mL) | – | –
34 | CN1CC2=C(N=C(S)NC2c2ccccc2Cl)/C(=C/c2ccccc2Cl)C1 (stereo not given) | 30 µM (≈ 12.5 µg/mL) | – | –
35 | S=C1NC2=C(CN(Cc3ccccc3)C/C2=C\c2ccccc2Br)C(c2ccccc2Br)N1 (stereo not given) | 21.5 µM (≈ 12.5 µg/mL) | – | –
36 | S=C1NC2=C(CN(Cc3ccccc3)C/C2=C\c2ccccc2Cl)C(c2ccccc2Cl)N1 (stereo not given) | 25.4 µM (≈ 12.5 µg/mL) | – | –
37 | S=C1NC2=C(CN(Cc3ccccc3)C/C2=C\c2ccccc2)C(c2ccccc2)N1 (stereo not given) | 59 µM (≈ 25 µg/mL) | – | –
38 | Cc1ccc(/C=C2\CN(Cc3ccccc3)CC3=C2NC(=S)NC3c2ccc(C)cc2)cc1 (stereo not given) | 55.4 µM (≈ 25 µg/mL) | – | –
39 | COc1ccc(/C=C2\CN(C)CC3=C2N=C(S)NC3c2ccc(OC)cc2)cc1 (stereo not given) | 61.4 µM (≈ 25 µg/mL) | – | –
